Assay [1] concerns the target human dopamine D2 receptor (hD2R) (Homo sapiens, UniProt P14416). Description: Human D2 receptor binding assay ([^3H]-Spiperone). The conditions noted are these: CHO cells expressing hD2R, geometric mean of 2-5 determinations unless marked b (single determination).
Assay [2] deals with human dopamine D3 receptor (hD3R) (Homo sapiens, UniProt P35462). Kind of assay: Human D3 receptor binding assay ([^3H]-7-OH-DPAT). The conditions noted are these: CHO cells expressing hD3R, geometric mean of 2-5 determinations unless marked b (single determination), read-out: hD3 in CHO cells Ki.

SMILES strings stand for the structures.

Chain of human dopamine D2 receptor (hD2R) (P14416 whole entry): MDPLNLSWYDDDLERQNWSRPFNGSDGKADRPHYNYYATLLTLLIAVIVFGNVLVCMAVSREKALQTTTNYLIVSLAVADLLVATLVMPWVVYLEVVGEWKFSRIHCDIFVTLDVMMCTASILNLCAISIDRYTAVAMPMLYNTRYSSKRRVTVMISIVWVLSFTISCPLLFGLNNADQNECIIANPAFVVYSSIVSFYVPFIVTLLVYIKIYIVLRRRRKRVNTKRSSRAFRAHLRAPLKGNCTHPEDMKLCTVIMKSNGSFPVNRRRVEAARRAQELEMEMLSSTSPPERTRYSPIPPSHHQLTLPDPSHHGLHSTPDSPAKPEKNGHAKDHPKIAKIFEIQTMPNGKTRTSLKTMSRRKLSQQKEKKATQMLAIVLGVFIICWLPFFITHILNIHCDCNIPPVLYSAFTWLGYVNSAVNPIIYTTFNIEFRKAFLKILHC
Chain of human dopamine D3 receptor (hD3R) (P35462 whole entry): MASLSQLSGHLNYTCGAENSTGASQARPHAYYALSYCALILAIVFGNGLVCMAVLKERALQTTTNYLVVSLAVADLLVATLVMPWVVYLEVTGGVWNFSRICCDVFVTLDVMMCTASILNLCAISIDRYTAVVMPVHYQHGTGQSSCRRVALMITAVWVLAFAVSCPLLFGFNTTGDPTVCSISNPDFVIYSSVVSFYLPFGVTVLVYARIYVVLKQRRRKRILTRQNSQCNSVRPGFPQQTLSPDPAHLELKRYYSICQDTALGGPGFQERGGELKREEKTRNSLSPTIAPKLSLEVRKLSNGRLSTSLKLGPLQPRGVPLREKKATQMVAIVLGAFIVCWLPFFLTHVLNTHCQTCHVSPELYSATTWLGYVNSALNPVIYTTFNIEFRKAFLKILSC

Turning to `COc1nc2c(cc1NS(=O)(=O)c1ccc([C@H]3CCCCO3)cc1)CCN(C)CC2` [Example 7, N-(2-Methoxy-7-methyl-6,7,8,9-tetrahydro-5H-pyrido[2,3-d]azepin-3-yl)-4-[(2R)-tetrahydro-2H-pyran-2-yl]benzenesulfonamide], the Ki in assay [1] was determined as 65.5 nM; in assay [2], 1.39 nM.

As to `COc1nc2c(cc1NS(=O)(=O)c1ccc([C@H]3CCCCO3)nc1)CCN(C)CC2` [Example 129, N-(2-methoxy-7-methyl-6,7,8,9-tetrahydro-5H-pyrido[2,3-d]azepin-3-yl)-6-[(2R)-tetrahydro-2H-pyran-2-yl]pyridine-3-sulfonamide], the figures for the Ki in assay [1] and in assay [2] were 786 nM and 16.7 nM, respectively.

As to `COc1nc2c(cc1NS(=O)(=O)c1ccc(C3CCC3)nc1)CCN(C)CC2` [Example 113, 6-cyclobutyl-N-(2-methoxy-7-methyl-6,7,8,9-tetrahydro-5H-pyrido[2,3-d]azepin-3-yl)pyridine-3-sulfonamide], the Ki in assay [1] was determined as 143 nM; in assay [2], 3.94 nM.

Turning to `CCCc1ccc(S(=O)(=O)Nc2cc3c(nc2OC)CCN(C)CC3)cc1` [Example 118, N-(2-methoxy-7-methyl-6,7,8,9-tetrahydro-5H-pyrido[2,3-d]azepin-3-yl)-4-propylbenzenesulfonamide], the Ki in assay [1] came out at 5.41 nM; in assay [2], 0.57 nM.

Source of the values: patent publication US10590128B2, “6,7,8,9-tetrahydro-5H-pyrido[2,3-d]azepine dopamine D3 ligands” (Pfizer Inc., priority 2016, dated 2020).
